Target: T1, hMAGL (MAGL-overexpressing membrane preparations from transiently transfected HEK293T cells) (Homo sapiens, UniProt Q99685)
T1 construct: expressed in transfected cells; host or cells: HEK293T (transient transfection), membrane preparations
T1 sequence (Q99685 1-303): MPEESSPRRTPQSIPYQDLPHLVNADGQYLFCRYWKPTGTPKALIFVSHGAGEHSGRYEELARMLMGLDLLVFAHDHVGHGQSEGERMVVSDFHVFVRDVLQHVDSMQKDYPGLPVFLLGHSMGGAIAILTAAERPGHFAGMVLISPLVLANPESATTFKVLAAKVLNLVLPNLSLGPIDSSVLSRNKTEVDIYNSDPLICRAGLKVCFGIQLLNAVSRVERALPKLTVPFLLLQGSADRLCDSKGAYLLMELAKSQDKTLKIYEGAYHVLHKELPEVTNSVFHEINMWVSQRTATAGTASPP
Assay: MAGL activity assay (2-AG hydrolysis, glycerol coupled to Amplifu Red fluorescence)
Assay type: biochemical
Conditions: hMAGL-overexpressing HEK293T membranes, 25 μM 2-AG substrate, 20 min. inhibitor incubation
Text: The MAGL activity assay is based on the production of glycerol from 2-arachidonoylglycerol (2-AG) hydrolysis by MAGL-overexpressing membrane preparations from transiently transfected HEK293T cells, as previously reported in van der Wel T et al., “A natural substrate-based fluorescence assay for inhibitor screening on diacylglycerol lipase”, J Lipid Res., 2015, 56(4), 927-35. The produced glycerol is coupled to the oxidation of commercially available Amplifu™ Red (Sigma-Aldrich Chemie N.V., Zwijndrecht, Netherlands) via a multi-enzyme cascade, resulting in a fluorescent signal from the dye resorufin.
Standard assays were performed in HEMNB buffer (50 mM HEPES pH 7.4, 1 mM EDTA, 5 mM MgCl2, 100 mM NaCl, 0.5% (w/v) BSA) in black, flat bottom 96-wells plates. Final protein concentration of membrane preparations from overexpressing hMAGL HEK293T cells was 1.5 μg/mL (0.3 μg per well). Inhibitors were added from 40× concentrated DMSO stocks. […] Final assay concentrations: 0.2 U/mL GK, GPO and HRP, 0.125 mM ATP, 10 μM Amplifu™ Red, 25 μM 2-AG, 5% DMSO, 0.5% ACN in a total volume of 200 μL.
For IC50 determination, the MAGL-overexpressing membranes were incubated with different inhibitor concentrations. Slopes of corrected fluorescence in time were determined in the linear interval of t=10 to t=35 min and then scaled to the corrected positive control of hMAGL-overexpressing membranes treated with vehicle (DMSO) as a 100% activity reference point. The data was exported to GraphPad Prism 5.0 and analysed in a non-linear dose-response analysis with variable slope.

Point of comparison: `C[C@H]1[C@H](C)N(c2cccc(Cl)c2)CCN1C(=O)c1ccc([S+]([O-])CC(=O)C(C)(F)F)c(Cl)c1` (mixture of isomers) [Example 78, (±) 1-((2-Chloro-4-(4-(3-chlorophenyl)-trans-2,3-dimethylpiperazine-1-carbonyl)phenyl)sulfinyl)-3,3-difluorobutan-2-one], IC50 1.48 nM. Against it:
- CCOC(=O)C[S+]([O-])c1ccc(C(=O)N2CCN(c3cccc(Cl)c3)[C@H](C)[C@H]2C)cc1C(F)(F)F (mixture of isomers) [Example 107, (±) Ethyl 2-((4-(4-(3-chlorophenyl)-trans-2,3-dimethylpiperazine-1-carbonyl)-2-(trifluoromethyl)phenyl)sulfinyl)acetate] — 10-fold higher, 14.8 nM
- COCCOC(=O)C[S+]([O-])c1ccc(C(=O)N2CCN(c3cccc(Cl)c3)[C@@H](C)[C@@H]2C)cc1Cl (mixture of isomers) [Example 65, (±) 2-Methoxyethyl 2-((2-chloro-4-(4-(3-chlorophenyl)-trans-2,3-dimethylpiperazine-1-carbonyl)phenyl)sulfinyl)acetate] — 6.2-fold higher, 9.12 nM
- COCC(C)OC(=O)C[S+]([O-])c1ccc(C(=O)N2CCN(c3cccc(Cl)c3)[C@@H](C)[C@@H]2C)cc1Cl (mixture of isomers) [Example 66, (±) 1-Methoxypropan-2-yl 2-((2-chloro-4-(4-(3-chlorophenyl)-trans-2,3-dimethylpiperazine-1-carbonyl)phenyl)sulfinyl)acetate] — 32-fold higher, 46.8 nM
- C[C@H]1[C@H](C)N(c2cccc(Cl)c2)CCN1C(=O)c1ccc([S+]([O-])CC(=O)c2ccc(F)cc2F)c(Cl)c1 (mixture of isomers) [Example 97, (±) 2-((2-Chloro-4-(4-(3-chlorophenyl)-trans-2,3-dimethylpiperazine-1-carbonyl)phenyl)sulfinyl)-1-(2,4-difluorophenyl)ethan-1-one] — 160-fold higher, 234 nM
- CCOC(=O)C[S+]([O-])c1ccc(C(=O)N2CCN(c3cccc(Cl)c3)CC2(C)C)cc1F (stereo not shown) [Example 48, Ethyl 2-((4-(4-(3-chlorophenyl)-2,2-dimethylpiperazine-1-carbonyl)-2-fluorophenyl)sulfinyl)acetate] — 39-fold higher, 57.5 nM
- CCOC(=O)C[S+]([O-])c1ccc(C(=O)N2CCN(c3cccc(C(F)(F)F)c3)[C@H](C)C2)cc1[N+](=O)[O-] (stereo partly drawn) [Example 30, Ethyl 2-((4-((R)-3-methyl-4-(3-(trifluoromethyl)phenyl)piperazine-1-carbonyl)-2-nitrophenyl)sulfinyl)acetate] — 78-fold higher, 115 nM
- CCOC(=O)CSc1ccc(C(=O)N2CCN(c3cccc(Cl)c3)[C@H](C)[C@H]2C)cc1Cl (racemic) [Example 52, (±) Ethyl 2-((2-chloro-4-(4-(3-chlorophenyl)-trans-2,3-dimethylpiperazine-1-carbonyl)phenyl)thio)acetate] — higher, > 10000 nM
- CCOC(=O)C[S+]([O-])c1ccc(C(=O)N2CCN(c3cccc(C(F)(F)F)c3)[C@@H](C)C2)cc1[N+](=O)[O-] (stereo partly drawn) [Example 31, Ethyl 2-((4-((S)-3-methyl-4-(3-(trifluoromethyl)phenyl)piperazine-1-carbonyl)-2-nitrophenyl)sulfinyl)acetate] — 140-fold higher, 200 nM
- CCOC(=O)C[S+]([O-])c1ccc(C(=O)N2CCN(c3cccc(Cl)c3)C(C)(C)C2)cc1F (stereo not shown) [Example 47, Ethyl 2-((4-(4-(3-chlorophenyl)-3,3-dimethylpiperazine-1-carbonyl)-2-fluorophenyl)sulfinyl)acetate] — 32-fold higher, 46.8 nM
- CCOC(=O)C[S+]([O-])c1ccc(C(=O)N2CCN(c3cccc([N+](=O)[O-])c3)CC2)cc1[N+](=O)[O-] (stereo not shown) [Example 19, Ethyl 2-((2-nitro-4-(4-(3-nitrophenyl)piperazine-1-carbonyl)phenyl)sulfinyl)acetate] — 1700-fold higher, 2570 nM
- CCOC(=O)CSc1ccc(C(=O)N2CCN(c3cccc(C)c3)[C@@H](C)C2)cc1[N+](=O)[O-] [Example 5, Ethyl (S)-2-((4-(3-methyl-4-(m-tolyl)piperazine-1-carbonyl)-2-nitrophenyl)thio)acetate] — higher, > 10000 nM
- CCOC(=O)C[S+]([O-])c1ccc(C(=O)N2CCN(c3cccc(C)c3)[C@@H](C)C2)cc1 (stereo partly drawn) [Example 7, Ethyl 2-((4-((S)-3-methyl-4-(m-tolyl)piperazine-1-carbonyl)phenyl)sulfinyl)acetate] — 3800-fold higher, 5620 nM
- CCOC(=O)C[S+]([O-])c1ccc(C(=O)N2CCN(c3cccc(C)c3)[C@@H](C)C2)cc1[N+](=O)[O-] (stereo partly drawn) [Example 2, Ethyl 2-((4-((S)-3-methyl-4-(m-tolyl)piperazine-1-carbonyl)-2-nitrophenyl)sulfinyl)acetate] — 180-fold higher, 269 nM
- CCN(C)C(=O)C[S+]([O-])c1ccc(C(=O)N2CCN(c3cccc(Cl)c3)[C@H](C)C2)cc1[N+](=O)[O-] (stereo partly drawn) [Example 33, 2-((4-((R)-4-(3-Chlorophenyl)-3-methylpiperazine-1-carbonyl)-2-nitrophenyl)sulfinyl)-N-ethyl-N-methylacetamide] — higher, > 10000 nM
- CCC(C)OC(=O)C[S+]([O-])c1ccc(C(=O)N2CCN(c3cccc(Cl)c3)[C@H](C)[C@H]2C)cc1Cl (mixture of isomers) [Example 57, (±) sec-Butyl 2-((2-chloro-4-(4-(3-chlorophenyl)-trans-2,3-dimethylpiperazine-1-carbonyl)phenyl)sulfinyl)acetate] — 2.6-fold higher, 3.89 nM
- CCC(F)(F)C(=O)C[S+]([O-])c1ccc(C(=O)N2CCN(c3cc(Cl)ccn3)[C@@H](C)[C@@H]2C)cc1Cl (mixture of isomers) [Example 84, (±) 1-((2-Chloro-4-(4-(4-chloropyridin-2-yl)-trans-2,3-dimethylpiperazine-1-carbonyl)phenyl)sulfinyl)-3,3-difluoropentan-2-one] — 1.9-fold higher, 2.82 nM
- C[C@H]1[C@H](C)N(c2cccc(Cl)c2)CCN1C(=O)c1ccc([S+]([O-])CC(=O)c2nccs2)c(Cl)c1 (mixture of isomers) [Example 75, (±) 2-((2-Chloro-4-(4-(3-chlorophenyl)-trans-2,3-dimethylpiperazine-1-carbonyl)phenyl)sulfinyl)-1-(thiazol-2-yl)ethan-1-one] — 160-fold higher, 234 nM
- CCOC(=O)C[S+]([O-])c1ccc(C(=O)N2CCN(c3cc(Cl)ccn3)[C@@H](C)[C@@H]2C)cc1Cl (mixture of isomers) [Example 71, (±) Ethyl 2-((2-chloro-4-(-4-(4-chloropyridin-2-yl)-trans-2,3-dimethylpiperazine-1-carbonyl)phenyl)sulfinyl)acetate] — 5.9-fold higher, 8.71 nM
- CCOC(=O)CC(=O)c1ccc(C(=O)N2CCN(c3cccc(Cl)c3)[C@H](C)[C@H]2C)cc1Cl (racemic) [Example 55, (±) Ethyl 3-(2-chloro-4-(4-(3-chlorophenyl)-trans-2,3-dimethylpiperazine-1-carbonyl)phenyl)-3-oxopropanoate] — 780-fold higher, 1150 nM
- CCOC(=O)C[S+]([O-])c1ccc(C(=O)N2CCN(c3ccc(Cl)cc3Cl)CC2)cc1[N+](=O)[O-] (stereo not shown) [Example 23, Ethyl 2-((4-(4-(2,4-dichlorophenyl)piperazine-1-carbonyl)-2-nitrophenyl)sulfinyl)acetate] — 1300-fold higher, 1950 nM
- C[C@H]1[C@H](C)N(c2cccc(Cl)c2)CCN1C(=O)c1ccc([S+]([O-])CC(=O)C(F)(F)c2ccccc2)c(Cl)c1 (mixture of isomers) [Example 80, (±) 3-((2-Chloro-4-(4-(3-chlorophenyl)-trans-2,3-dimethylpiperazine-1-carbonyl)phenyl)sulfinyl)-1,1-difluoro-1-phenylpropan-2-one] — 59-fold higher, 87.1 nM
- CCOC(=O)C[S+]([O-])c1ccc(C(=O)N2CCN(c3ccnc(Cl)c3)[C@@H](C)[C@@H]2C)cc1Cl (mixture of isomers) [Example 69, (±) Ethyl 2-((2-chloro-4-(-4-(2-chloropyridin-4-yl)-trans-2,3-dimethylpiperazine-1-carbonyl)phenyl)sulfinyl) acetate] — 59-fold higher, 87.1 nM
- C[C@H]1[C@H](C)N(c2cccc(Cl)c2)CCN1C(=O)c1ccc([S+]([O-])CC(=O)C(F)F)c(Cl)c1 (mixture of isomers) [Example 77, (±) 3-((2-Chloro-4-(4-(3-chlorophenyl)-trans-2,3-dimethylpiperazine-1-carbonyl)phenyl)sulfinyl)-1,1-difluoropropan-2-one] — 1.6-fold higher, 2.34 nM
- C[C@H]1[C@H](C)N(c2cccc(Cl)c2)CCN1C(=O)c1ccc([S+]([O-])CC(=O)OC2CCOCC2)c(Cl)c1 (mixture of isomers) [Example 67, (±) tetraHydro-2H-pyran-4-yl 2-((2-chloro-4-(4-(3-chlorophenyl)-trans-2,3-dimethylpiperazine-1-carbonyl)phenyl)sulfinyl)acetate] — 8.7-fold higher, 12.9 nM

From patent US20230121721A1, “MONOACYLGLYCEROL LIPASE INHIBITORS” (STICHTING HET NEDERLANDS KANKER INSTITUUT - ANTONI VAN …, priority 2020, published 2023)
